Reference: US10493153B2, “Alkylated photoremovable protecting groups and uses thereof” (Iowa State University Research Foundation, Inc., priority 2018, dated 2019)

What was measured:
Type in all cases: physicochemical
[1] = Quantum yield and quantum efficiency of photorelease on irradiation; settings: for εΦ (quantum efficiency): product of extinction coefficient and quantum yield; for Φ (quantum yield): solutions in methanol, λirr 365, 490, 507 nm
Description: A solution of the given compound (3.0 mL) in a matched 1.0 cm quartz PTFE screw-cap fluorescence cuvette equipped with a stir bar was irradiated with a light source (32 LEDs emitting at the selected wavelength: λmax=365, 490, 507 nm; the bandwidths at half height=30 nm; high-pressure 450 W mercury-xenon arc lamp with a monochromator with 200-1600 nm grating set to 365±0.5 nm). The reaction progress was monitored by UV-vis spectrometry using a diode-array spectrophotometer in a kinetic mode.
Photodegradation quantum yields for both aerated and degassed (freeze-pump-thaw technique; 3 cycles) solutions in methanol were determined at λirr=365 (LEDs and mercury-xenon arc lamp), 490 nm (LEDs), and 507 nm (LEDs) with xanthene-9-carboxylic acidl and BODIPY-CORM2 as actinometers; most values were cross-checked using ferrioxalate3 at λirr=365 nm. The data were processed using single value decomposition (SVD) software assuming the first-order rate law. The amount of absorbed light was calculated from the whole emission spectrum of the light source. […] All quantum yield measurements were repeated at least 6 times with independently prepared samples.
(§1) The observed substrate release rate as a function of photolysis time is quantified by the quantum efficiency parameter (εϕ), which is the product of the extinction coefficient at the irradiation wavelength (E) and the quantum yield (ϕ). Extinction coefficients for compounds 1-7 were determined by UV-Vis spectroscopy (see Table 1).

[2] = UV-Vis absorption spectroscopy (absorption maximum, extinction coefficient); settings: for λmax: absorption maximum, UV-vis; for ε (extinction coefficient): determined by UV-Vis spectroscopy, in M-1cm-1 (unit assumed)
Description: (§2) All manipulation with photosensitive samples were accomplished under the red light (λ>600 nm). In the spectroscopy measurements, the lowest possible intensity of incident light was used; the spectroscopic identity of the samples was confirmed after each measurement to ensure that no unwanted photodegradation processes occurred. All measurements were accomplished using fresh solutions prepared in the dark. ^1H and ^13C NMR spectra were obtained in CDCl3 on 101, 125, 400 and 500 MHz spectrometers. ^1H chemical shifts are reported in ppm relative to the tetramethylsilane signal (TMS, δ=0.00 ppm), using the residual solvent signal as an internal reference. ^13C NMR chemical shifts are reported in ppm relative to the CDCl3 signal as an internal standard. IR spectra were recorded on an FTIR spectrophotometer. Mass spectra (MS) and high resolution mass spectra (HRMS) were recorded using an ESI and APCI techniques. Absorption spectra and the molar absorption coefficients were obtained on a UV-vis spectrometer with matched 1.0-cm quartz cells. […] A nanosecond flash lamp (filled with H2) was used to determine the fluorescence lifetimes. The data obtained were deconvolved from the measured decay curves of the sample and the instrumental response function. The quantum yields of fluorescence were obtained using a calibrated integration sphere.
as §1

[3] = Fluorescence emission spectroscopy; settings: emission maximum
Description: as §2

Compound	εΦ (quantum efficiency) [1]	Φ (quantum yield) [1]	λmax [2]	ε (extinction coefficient) [2]	λem [3]
2,6-Diiodo-4,4′-dimethyl-8-chloro ethyl-1,3,5,7-tetramethyl-4-bora-3a,4a-diaza-s-indacene [Compound 5]	59,280 M^−1cm^−1	0.95	542 nm	62,400	573 nm
CC1=CC(C)=[N+]2C1=C(CCl)c1c(C)cc(C)n1[B-]2(C)C [Compound 1, 4,4′-Dimethyl-8-chloromethyl-1,3,5,7-tetramethyl-4-bora-3a,4a-diaza-s-indacene]	41,194 M^−1cm^−1	0.68	519 nm	60,580	556 nm
CC1=CC(C)=[N+]2C1=C(COC(=O)Cc1ccccc1)c1c(C)cc(C)n1[B-]2(C)C [Compound 2, 4,4′-Dimethyl-8-methyl(2-phenylacetate)-1,3,5,7-tetramethyl-4-bora-3a,4a-diaza-s-indacene]	7,398 M^−1cm^−1	0.11	512 nm	68,500	550 nm
CC[B-]1(CC)n2c(C)cc(C)c2C(COC(=O)Cc2ccccc2)=C2C(C)=CC(C)=[N+]21 [Compound 3, 4,4′-Diethyl-8-methyl-(2-phenylacetate)-1,3,5,7-tetramethyl-4-bora-3a,4a-diaza-s-indacene]	4,424 M^−1cm^−1	0.08	513 nm	55,300	550 nm
CC1=CC(C)=[N+]2C1=C(COC(=O)Cc1ccccc1)c1c(C)cc(C)n1[B-]2(c1ccccc1)c1ccccc1 [Compound 4, 4,4′-Diphenyl-8-methyl-(2-phenylacetate)-1,3,5,7-tetramethyl-4-bora-3a,4a-diaza-s-indacene]	583 M⁻¹ cm⁻¹	0.01	517 nm	58,300	562 nm
CC1=C(I)C(C)=[N+]2C1=C(COC(=O)Cc1ccccc1)c1c(C)c(I)c(C)n1[B-]2(C)C [Compound 6, 2,6-Diiodo-4,4′-dimethyl-8-methyl-(2-phenylacetate)-1,3,5,7-tetramethyl-4-bora-3a,4a-diaza-s-indacene]	16,996 M^−1cm^−1	0.28	538 nm	60,700	572 nm
